Assay results as given in US5256824A, “Substituted-amine compound and a process for the preparation thereof” (Fujisawa Pharmaceutical Co., Ltd., priority 1990, dated 1993).

Columns and labels:
[1] = tested on: Urinary Bladder Contractions Induced by Water Filling; assay: Inhibition of Urinary Bladder Contractions Induced by Water Filling in Rats; format: in vivo, Male Sprague-Dawly rats; conditions: Rattus norvegicus; intravenous, anesthetized rats (urethane), hyperactive bladder by water filling
Description: Test on Inhibition of Urinary Bladder Contractions Induced by Water Filling in Rats
Male Sprague-Dawly rats, weighing 240-450 g, were anesthetized with urethane 1.0 g/kg s.c. The bladder was exposed through a midline incision in the abdomen for the recording of pressure within the bladder as follows; a balloon attached to one end of a stainless steel tube (O.D., 1.2 mm, 5 cm in length) was inserted into the bladder through a small incision in the bladder dome. The other end of the tube was connected to a pressure-transducer. The ureters were ligated and cut, and the proximal cut end was cannulated with polyethylene tubing and the urine was led outside.
Hyperactive urinary bladder (hyperactive contractions of the detrusor muscle) was induced by water filling of the bladder. Therefore, the balloon in the bladder was filled with water of a volume which caused a resting pressure of about 10 mmHg. Systemic blood pressure and heart rate were monitored from the common carotid artery.
When the contractile responses to water filling became constant, test compounds were administered intravenously.

Na channel = Na channel blocking activity (local anesthetic effect on the corneal blink reflex); format: in vivo, Male Japanese white rabbits; conditions: 1.0% solution in saline, 50 μl drops to one eye
Experimental: Test on Na channel blocking activity
Male Japanese white rabbits weighing 2.0-3.0 kg were to evaluate the local anesthetic effect of test compound on the corneal blink reflex. Corneal reflexes were elicited by pressing a flexible monofilament (rabbit whisker) against the cornea. 1.0% Test compound solution in saline was applied to one eye (50 μl drops) and the contralateral eye received as a control. Corneal blink responses were scored at 5, and 15 minutes after test compound application.
Local anesthetic activities were expressed as an inhibition percent of blink responses.

Compound	ED30 [1]	Inhibition % of blink responses (Na channel; 5 minutes after application)	Inhibition % of blink responses (Na channel; 15 minutes after application)
CC(C)(C)NC1C=CC(c2ccccc2)(c2ccccc2)C1.CS(=O)(=O)O (single isomer, unassigned; (-)) [(-)-N-t-butyl-4,4-diphenyl-2-cyclopentenylamine methanesulfonate]	0.18 mg/kg	–	–
CC(C)(C)NC1C=CC(c2ccccc2)(c2ccccc2)C1.Cl (single isomer, unassigned; (-)) [(-)-N-t-butyl-4,4-diphenyl-2-cyclopentenylamine hydrochloride]	–	100%	100%
